Results taken from US8603527B2, “Pharmaceutical formulations of a substituted diaminopurine” (Signal Pharmaceuticals, LLC, priority 2010, dated 2013).
Where two headings read alike, the source gives them in different places.

Experiments:
[1] = Pharmacokinetics of a single ascending oral dose in healthy male subjects; format: in vivo, human; conditions: for AUC(0-inf) / AUC(0-t) / Cmax / half-life / Vd/F / Tmax: human, in vivo; for Vd/F: read-out: Vz/F
Description: Methods: The study was a randomized, double-blind, placebo-controlled, single-ascending-dose trial. Forty-five healthy male subjects were enrolled into 1 of the 5 cohorts (active:placebo=7:2 per cohort). Subjects received single oral doses of 5 mg, 25 mg, 50 mg, 100 mg or 200 mg of unformulated Compound I in a capsule, or matching placebo.

[2] = Relative bioavailability and food effect crossover study of formulated capsules in healthy male subjects; format: in vivo, human; conditions: Treatments A-D, single 100 mg dose
Description: Methods: This was an open-label, randomized, 4-treatment, 4-period, 4-sequence crossover study in healthy subjects to evaluate relative bioavailability and food effect on Compound I capsule formulations. The study consisted of a screening phase (Day −21 to Day −2) for subject eligibility, a baseline/admission phase (Day −1) for each period, treatment and assessment phase (Days 1 to Day 8) for each period, and a follow-up visit (Day 15±2 days from the last dose). During each period, subjects were domiciled at the study site from Day −1 through Day 2 (discharged on Day 3 after PK sampling and safety evaluations). Subjects then visited the study center on Days 4, 6, and 8 of each period for PK sampling and safety evaluations. Between periods, there was a minimum of 10 days of washout from the prior dose to the next dose (no more than 14 days).
Sixteen (16) male subjects were be randomized to one of the following 4 treatment sequences (4 subjects per sequence) on Day 1 of Period 1:
Subjects started fasting from the night of Day −1 for a minimum of 10 hours prior to dosing. On Day 1 of each period, subjects received their randomized treatment of Compound I at approximately 8 AM. […] Approximately 5 mL of blood sample was collected on days 1-8 for PK analysis. Subjects received standardized meals scheduled at approximately the same time during confinement in each period of the study.

[3] = single oral dose 5 mg, unformulated in capsule, healthy male subjects, geometric mean
[4] = single oral dose 25 mg, unformulated in capsule, healthy male subjects, geometric mean
[5] = single oral dose 50 mg, unformulated in capsule, healthy male subjects, geometric mean
[6] = single oral dose 100 mg, unformulated in capsule, healthy male subjects, geometric mean
[7] = single oral dose 200 mg, unformulated in capsule, healthy male subjects, geometric mean
[8] = male, single oral doses 5-200 mg

O[C@H]1CC[C@H](Nc2ncc3nc(Nc4c(F)cc(F)cc4F)n([C@H]4CCOC4)c3n2)CC1 [Compound I, 4-((9-((3S)-tetrahydro-3-furanyl)-8-((2,4,6-trifluorophenyl)amino)-9H-purin-2-yl)amino)-trans-cyclohexanol]
AUC(0-inf) [1, 3]: 625 ng·h/mL | AUC(0-t) [1, 3]: 567 ng·h/mL | Cmax [1, 3]: 34.7 ng/mL | half-life [1, 3]: 19.1 h | Vd/F [1, 3]: 221 L | Tmax ([1]; single oral dose 5 mg, unformulated in capsule, healthy male subjects, median (min-max), read-out: Tmax): 1.5 h | AUC(0-inf) [1, 4]: 3600 ng·h/mL | AUC(0-t) [1, 4]: 3150 ng·h/mL | Cmax [1, 4]: 163 ng/mL | half-life [1, 4]: 24.1 h | Vd/F [1, 4]: 241 L | Tmax ([1]; single oral dose 25 mg, unformulated in capsule, healthy male subjects, median (min-max), read-out: Tmax): 1.5 h | AUC(0-inf) [1, 5]: 7320 ng·h/mL | AUC(0-t) [1, 5]: 6700 ng·h/mL | Cmax [1, 5]: 367 ng/mL | half-life [1, 5]: 20.4 h | Vd/F [1, 5]: 202 L | Tmax ([1]; single oral dose 50 mg, unformulated in capsule, healthy male subjects, median (min-max), read-out: Tmax): 2 h | AUC(0-inf) [1, 6]: 13600 ng·h/mL | AUC(0-t) [1, 6]: 10800 ng·h/mL | Cmax [1, 6]: 471 ng/mL | half-life [1, 6]: 27.5 h | Vd/F [1, 6]: 293 L | Tmax ([1]; single oral dose 100 mg, unformulated in capsule, healthy male subjects, median (min-max), read-out: Tmax): 2 h | AUC(0-inf) [1, 7]: 26400 ng·h/mL | AUC(0-t) [1, 7]: 23100 ng·h/mL | Cmax [1, 7]: 1430 ng/mL | half-life [1, 7]: 25 h | Vd/F [1, 7]: 273 L | Tmax ([1]; single oral dose 200 mg, unformulated in capsule, healthy male subjects, median (min-max), read-out: Tmax): 1.5 h | AUC(0-inf) [1, 8]: 600 to 27000 ng·h/mL | AUC(0-t) [1, 8]: 500 to 24000 ng·h/mL | Cmax [1, 8]: 30 to 1500 ng/mL | half-life [1, 8]: 19 to 28 h | Tmax ([1]; male, single oral doses 5-200 mg, unformulated in a capsule, healthy males, read-out: median Tmax): 1.5 to 2 h | Vd/F [1, 8]: 200 to 300 L | urinary excretion of unchanged Compound I ([1]; over 72 hrs post-dose, single oral doses): 9-13 % of the administered dose | CLF [1, 3]: 133.36 mL/min | CLF [1, 4]: 115.58 mL/min | CLF [1, 5]: 113.88 mL/min | CLF [1, 6]: 122.89 mL/min | CLF [1, 7]: 126.02 mL/min | CLF ([1]; single oral doses 5-200 mg): 100 to 140 mL/min | AUCt, Intra-Subject CV % [2]: 16.1% | AUC∞, Intra-Subject CV % [2]: 15.3% | Cmax, Intra-Subject CV % [2]: 36.8%
